Results on 134 compounds are retold here after the pKa sets of Baltruschat and Czodrowski (2020).

As usually defined, the pKa is the pH at which an ionisable group is half protonated. Read a high pKa as a weaker acid or stronger base.

Where a SMILES comes first, the peptide text is derived from it.

For the first series the following is noted: acidic group.
The compound `Cc1nc2ccccc2[nH+]c1O` came in with a pKa of 0.48.

For `CC1=CC(=O)CC(=O)O1`, the pKa worked out at 5.

The compound `Cc1nc2c(n1C)C(=O)c1[nH]c(=O)[nH]c(=O)c1C2=O` came in with a pKa of 5.82.

As to `O=C([O-])c1ccc([N+](=O)[O-])cc1O`, the pKa stood at 10.3.

The compound `NCc1cccc(S(N)(=O)=O)c1` gave a pKa of 10.1.

Regarding `[NH3+]C(CC(=O)O)C(=O)NC(CC(=O)O)C(=O)O` (stereo not given), the pKa was 2.7.

Compound `Cc1cccc(C(C)C)c1O` gave a pKa of 10.8.

On to `O=CO`, for which the pKa was found to be 3.69.

Compound `[O-]c1cccc2c1-c1cccc(O)c1-2` registered a pKa of 9.97.

In the case of `CC[NH+](CC)Cc1cc(Cl)ccc1O`, the pKa was 8.11.

`Cc1ccc(NS(=O)(=O)c2ccccc2)cc1` had a pKa of 8.63.

Consider `CC(=N\O)/C(CO)=N/O`, for which the pKa turned out to be 10.1.

On to `N#CC(C#N)=C(c1ccccc1)C(C#N)C#N`, for which the pKa was determined as 2.3.

`CCOc1cc(C)nc(-n2nc(C)cc2O)n1` returned a pKa of 7.35.

`O=C1C(O)=C(Cc2ccccc2)C(=O)c2ccccc21`: the pKa was 4.9.

In turn, `O=C1C=C(O)C(=O)c2ccccc21` displayed a pKa of 3.19.

As for `CC1=C(C)C(C(C)C(=O)O)CC1=O` (stereo not given), the pKa is 4.4.

Compound `Oc1cccc(Cl)c1` displayed a pKa of 8.96.

For `Cc1ccnc(NS(=O)(=O)c2ccc(N)cc2)n1`, the pKa amounted to 6.59.

`CC1(C)OC(=O)CC(=O)O1` gave a pKa of 5.15.

Take `CCc1c(-c2ccccc2)nn(C2CC[NH+](C)CC2)c1O`: the pKa is 5.9.

Take `Oc1ccc(/C=N/c2ncc3nc[nH]c3n2)cc1`: the pKa came out at 8.62.

With `NC1=[NH+][C@@H](CC(=O)O)C(=O)N1CCCC([NH3+])C(=O)[O-]` (stereo not given in full), the pKa amounted to 3.26.

On to `Cc1cccc(O)c1C(=O)Oc1ccccc1`, for which the pKa came to 8.63.

For `[O-]c1ccc(O)n[nH+]1`, the pKa is 5.73.

In the case of `O=C([O-])/C=C/c1ccccc1O`, the pKa was found to be 9.63.

In turn, `S=C(Nc1ccc(Br)cc1)c1cccc(Br)c1` showed a pKa of 9.96.

`O=C(O)C#CI`: the pKa is 2.

As for `O=S(=O)([O-])c1ccc(O)c2[nH]ncc12`, the pKa worked out at 7.6.

Take `[NH3+]C(Cc1n[nH]c2ccccc12)C(=O)O` (stereo not given): the pKa is 2.2.

Consider `O=[N+]([O-])c1ccc2c(O)cccc2c1`, for which the pKa was determined as 8.49.

In the case of `Cc1ccc(C(=O)NO)cc1`, the pKa is 8.9.

`O=c1c2[nH]cnc2ncn1[O-]` returned a pKa of 10.1.

Turning to `N#CC(C#N)=C(C#N)Nc1ccc(Br)cc1`, the pKa was found to be 4.45.

The compound `CC(C)c1ccccc1C(=O)O` came in with a pKa of 3.64.

As to `CCCP(=O)(CCC)CCC`, the pKa amounted to 12.2.

`CNC(=O)/C=C(/C)C(=O)O` displayed a pKa of 3.23.

`C#CCCCCC(=O)O` came in with a pKa of 4.58.

For the compound `[S-]c1ccncc1`, the pKa was determined as 8.83.

The compound `O=NCC(=O)c1cccnc1` yielded a pKa of 7.8.

`O=C(O)C[NH+](CC(=O)O)Cc1ccccc1O` showed a pKa of 2.2.

In turn, `CC(=O)NC(Cc1c[nH]c[nH+]1)C(=O)O` (stereo not given) registered a pKa of 2.94.

Consider `[S-]c1ncc2nc[nH]c2n1`, for which the pKa was found to be 10.4.

`CS(=O)(=O)Nc1ccc(CC([NH3+])C(=O)O)cc1` (stereo not given) had a pKa of 3.15.

In turn, `C/C=C/CCC(=O)O` had a pKa of 4.72.

The compound `[NH3+]C1(C(=O)O)CCCCC1` yielded a pKa of 2.66.

On to `O=C(O)c1ccccc1O[C@H]1O[C@@H](CO)[C@H](O)[C@@H](O)[C@@H]1O`, for which the pKa is 3.6.

Compound `Cc1nn(C)c(O)c1-c1ccccc1` registered a pKa of 10.9.

In the case of `CCSC(O)O`, the pKa was 11.5.

As to `N#CC(C#N)=C(N)C(C#N)C#N`, the pKa is 2.58.

Regarding `COc1cc(C(N)=O)ccc1-c1nc2nn(C)cc2[nH]1`, the pKa was 12.3.

`O=C(O)/C=C/c1ccccc1O` came in with a pKa of 4.56.

In turn, `O=C(O)[C@@H]1O[C@H](Oc2ccc(Br)cc2)[C@@H](O)[C@H](O)[C@H]1O` came in with a pKa of 3.02.

Turning to `CC(=O)C(C)[N+](=O)[O-]` (stereo not given), the pKa is 5.15.

The compound `On1nnc2cc(Cl)ccc21` gave a pKa of 4.18.

`C/C(=N/O)c1ccccc1` gave a pKa of 11.5.

As for `Fc1cccc(NC(=S)c2ccc(Cl)cc2)c1`, the pKa came to 10.2.

Compound `CC(=O)N(C)CC(=O)O` came in with a pKa of 3.16.

Consider `O=c1oc2c(O)c(O)cc3c(=O)oc4c(O)c(O)cc1c4c23`, for which the pKa was 6.59.

The compound `COC(=O)c1ccc(O)c([N+](=O)[O-])c1` gave a pKa of 5.4.

The compound `O=C(O)C#CC[NH+]1CCOCC1` came in with a pKa of 1.79.

`C[n+]1ccc(C(=O)Cc2ccccc2)cc1` had a pKa of 9.02.

In turn, `CCC(CC)C(=O)O` displayed a pKa of 4.73.

`O=C(O)c1ccc(C2CC2)cc1` returned a pKa of 4.42.

Still in this series, the particulars now being: basic group.
For `CCCCCCCCCCCCNc1ccccc1`, the pKa was found to be 4.12.

In turn, `[O-]c1ccnc2nccnc12` yielded a pKa of 8.78.

Compound `CCCCSCCN(CC)CC` registered a pKa of 8.43.

As for `CCCCCCCCOCCN(C)C`, the pKa was found to be 8.87.

Regarding `NCc1cccc(S(N)(=O)=O)c1`, the pKa stood at 8.55.

`NCCCCCC[NH3+]`: the pKa was 10.2.

As to `CN(C)c1cccc2ccccc12`, the pKa came to 4.83.

The compound `Cc1ccccc1C(=NCCCC[NH+](C)C)c1ccccc1C` had a pKa of 5.18.

`CC[NH+](CC)CCNc1nc(C)cc(Nc2ccc(Cl)cc2)n1` had a pKa of 6.69.

As for `Cc1ccnc([S-])[nH+]1`, the pKa is 2.2.

`Cn1cnc2cccc(N)c21` returned a pKa of 5.79.

In the case of `C[Si](C)(CN)O[Si](C)(C)CN`, the pKa worked out at 10.3.

Compound `[NH3+]NC(=O)c1ccncc1` registered a pKa of 1.85.

`CCN(C)CCOCCN(CC)CC` displayed a pKa of 10.1.

For the compound `Cc1ccnnc1C`, the pKa worked out at 4.1.

Regarding `NCCCCCCCC(=O)[O-]`, the pKa came out at 11.

Take `Cn1cnc2c1C(=O)c1ncnc([O-])c1C2=O`: the pKa is 6.09.

For `Cc1ccnc(NS(=O)(=O)c2ccc(N)cc2)n1`, the pKa worked out at 2.08.

As to `CCC(O)CN(CC)CC(O)CC` (stereo not given), the pKa worked out at 9.2.

`Oc1ccc(/C=N/c2ncc3nc[nH]c3n2)cc1`: the pKa is 3.27.

For `N=C(N)Nc1nc(N)nc(NC(N)=[NH2+])n1`, the pKa came out at 7.

On to `CC(C)(C)N`, for which the pKa worked out at 10.7.

Compound `Nc1ccc(CC(=O)[O-])cc1` gave a pKa of 5.2.

Compound `CC[NH2+]CCN` showed a pKa of 7.52.

For the compound `CCN(CC)CCCNc1ccnc2ccccc12`, the pKa amounted to 10.

`NCCCc1ccccc1O` gave a pKa of 9.51.

`Cc1ncc[nH]1`: the pKa was determined as 7.97.

Turning to `N=C(N)NOCC(=O)[O-]`, the pKa was 7.58.

Compound `CCc1cnc(C(=O)[O-])cc1CC` had a pKa of 6.58.

As to `Nc1cc(/C=C/c2ccccc2)nc(/C=C/c2ccccc2)c1`, the pKa came to 8.6.

With `CN[C@H]1CCCC[C@@H]1O`, the pKa amounted to 10.2.

For `CC[NH+](CC)CCNc1cc(C)nc(Nc2ccc(Cl)cc2)n1`, the pKa came out at 6.65.

Regarding `NC1(C(=O)[O-])CCCCC1`, the pKa came to 10.

Take `CO/N=C(\C)CC(C)(C)NCC[NH2+]C(C)(C)C/C(C)=N/O`: the pKa amounted to 6.28.

Turning to `CC(=O)N=S(C)C`, the pKa amounted to 3.16.

Compound `Cc1cccc(C)c1Oc1ccccn1` showed a pKa of 2.26.

On to `CCN1[C@@H](C)[C@@H]1C` (stereo not given in full), for which the pKa is 9.41.

Regarding `COc1cc(N)c(C#N)c(N)n1`, the pKa was determined as 4.17.

Compound `Cc1cc(N)ccc1[N+](=O)[O-]` displayed a pKa of 1.64.

`O=C([O-])CN(CC(=O)[O-])Cc1ccccc1[O-]` registered a pKa of 11.8.

Consider `CCN(CC)CC(=O)Nc1cc(C)ccc1C`, for which the pKa amounted to 7.92.

For `CCCCCC(C)NC` (stereo not given), the pKa was 11.

For the compound `CCCP(=O)(CCC)CCC`, the pKa was 4.9.

Consider `Nc1cc(C[NH3+])ccc1Cl`, for which the pKa turned out to be 3.71.

As to `CCOC(=O)c1cnc2ccccc2c1[O-]`, the pKa came to 9.62.

Turning to `[S-]c1ncc2nc[nH]c2n1`, the pKa amounted to 7.15.

As for `N#Cc1cccnc1`, the pKa was 1.48.

Compound `Nc1ccc[nH+]c1` registered a pKa of -1.37.

Compound `CCCCN1CCCCC1C` (stereo not given) came in with a pKa of 10.7.

On to `CC1=CC(C)=N/C1=C/c1[nH]c(C)cc1C`, for which the pKa worked out at 8.4.

In turn, `CCOC(=O)c1cnc2ccccc2c1OCC` gave a pKa of 3.88.

For the compound `C[C@@H]1C[C@H](OC(=O)c2ccccc2)CC(C)(C)N1`, the pKa is 8.97.

Compound `CN(C)CCCCNC(=O)/C=N/[O-]` gave a pKa of 10.1.

Regarding `CCOCCn1c(CN2CCC[NH+](CCCCn3cc(C(=O)[O-])cn3)CC2)nc2ccccc21`, the pKa came to 4.8.

In the case of `C[C@H](N)C(=O)N[C@@H](Cc1c[nH]cn1)C(=O)[O-]` (H-Ala-His-OH), the pKa was 8.08.

Consider `COc1cc(C(N)=O)ccc1-c1nc2nn(C)cc2[nH]1`, for which the pKa was determined as 3.98.

Consider `Nc1cccc(-c2nc3ccccc3s2)c1`, for which the pKa was found to be 3.4.

As for `Cc1c2ccncc2cc2c1[nH]c1ccncc12`, the pKa was found to be 7.5.

`c1ccc(-c2cc(-c3ccccc3)c(NCCN3CCOCC3)nn2)cc1`: the pKa amounted to 6.81.

For `C[n+]1c([O-])c([O-])nc2ccccc21`, the pKa was 9.74.

For the compound `NOCc1ccc([N+](=O)[O-])cc1`, the pKa was 3.96.

Turning to `CN(C)CCSCC[NH+](C)C`, the pKa worked out at 8.

`COc1ccncc1` returned a pKa of 6.65.

Consider `CN(C)Cc1cccc(O)c1O`, for which the pKa was determined as 8.01.

For the compound `Cc1nc2ccccc2[nH]1`, the pKa was 6.3.

For `O=C([O-])[C@@H]1O[C@H](Oc2ccc3cccnc3c2)[C@@H](O)[C@H](O)[C@H]1O`, the pKa was 5.32.

`CNC(C)=S` had a pKa of -1.9.

In turn, `CC(C=C(c1cccs1)c1cccs1)N1CCCCC1` (stereo not given) had a pKa of 8.46.

`C=C(C)C(=O)OCCNCC` came in with a pKa of 9.15.

Consider `c1cc2c(nn1)CCCC2`, for which the pKa was 4.3.

`CC(O)CN(CC(C)O)C(C)C` (stereo not given) had a pKa of 9.33.

On to `NC(CC(=O)[O-])C(=O)NC(CC(=O)[O-])C(=O)[O-]` (stereo not drawn) (H-Asp-Asp-OH; configuration not given here), for which the pKa was found to be 8.26.

`CN(C)CCCNC(=O)/C=N/[O-]` came in with a pKa of 9.78.

In turn, `CCC1CN1CC` (stereo not given) registered a pKa of 8.19.

Compound `CN(C)c1ccc([N+](=O)[O-])c2c(NCCC[NH+](C)C)c3ccccc3nc12` displayed a pKa of 6.47.

Regarding `COc1ccc(C2CCCN2C)cc1` (stereo not given), the pKa is 8.9.
